The test system of assay [1] is Giardia intestinalis. Description: Giardicidal activity against albendazole-resistant Giardia intestinalis incubated for 48 hrs by hemocytometric counting method. The following applies: Giardia duodenalis. It counts as functional, organism-based.
In assay [2] the test system is Giardia intestinalis. Description: Giardicidal activity against Giardia intestinalis WB ATCC 30957 incubated for 48 hrs by hemocytometric counting method. It counts as functional, organism-based. As to conditions: Giardia duodenalis, WB ATCC 30957, 48 h.
In assay [3] the test system is Giardia intestinalis. Description: Giardicidal activity against nitazoxanide-resistant Giardia intestinalis incubated for 48 hrs by hemocytometric counting method. The following applies: Giardia duodenalis. It counts as functional, organism-based.
Assay [4] concerns Giardia intestinalis. The experiment in a line: Giardicidal activity against Giardia intestinalis IMSS isolate incubated for 48 hrs by hemocytometric counting method. It counts as functional, organism-based. As to conditions: Giardia duodenalis.
The test system of assay [5] is Giardia intestinalis. The experiment in a line: Giardicidal activity against metronidazole-resistant Giardia intestinalis incubated for 48 hrs by hemocytometric counting method. It counts as functional, organism-based. As to conditions: Giardia duodenalis.
Assay [6] relates to Giardia intestinalis. Description: Potency index, ratio of albendazole IC50 to test compound IC50 for Giardicidal activity against nitazoxanide resistant Giardia intestinalis incubated for 48 hrs by hemocytometric counting method. It counts as functional, Giardia duodenalis.
The test system of assay [7] is Giardia intestinalis. Description: Potency index, ratio of nitazoxanide IC50 to test compound IC50 for Giardicidal activity against nitazoxanide-resistant Giardia intestinalis incubated for 48 hrs by hemocytometric counting method. It counts as functional, Giardia duodenalis.
Assay [8] relates to Giardia intestinalis. The experiment in a line: Potency index, ratio of metronidazole IC50 to test compound IC50 for Giardicidal activity against metronidazole-resistant Giardia intestinalis incubated for 48 hrs by hemocytometric counting method. It counts as functional, Giardia duodenalis.
Assay [9] has as its system Giardia intestinalis. The experiment in a line: Potency index, ratio of albendazole IC50 to test compound IC50 for Giardicidal activity against albendazole-resistant Giardia intestinalis incubated for 48 hrs by hemocytometric counting method. It counts as functional, Giardia duodenalis.

Here are results for seven compounds from ChEMBL document CHEMBL4819013, “The giardicidal activity of lobendazole, fabomotizole, tenatoprazole and ipriflavone: A ligand-based virtual screening and in vitro study” (Eur J Med Chem, 2021).

Consider `CCCSc1ccc2[nH]c(NC(=O)OC)nc2c1` [ALBENDAZOLE], for which the IC50 with Giardia intestinalis [1] stood at 137 nM; with Giardia intestinalis [2], 47 nM; in the assay with Giardia intestinalis [3], 277 nM.

Take `CCOc1ccc2nc(SCCN3CCOCC3)[nH]c2c1` [FABOMOTIZOLE]: the IC50 was 50 nM with Giardia intestinalis [1]; 29 nM with Giardia intestinalis [4]; 31 nM in the assay with Giardia intestinalis [2]; 50 nM in the assay on Giardia intestinalis [5]; 65 nM in the assay with Giardia intestinalis [3].

With `CC(C)Oc1ccc2c(=O)c(-c3ccccc3)coc2c1` [IPRIFLAVONE], the IC50 in the assay on Giardia intestinalis [1] is 45 nM; in the assay on Giardia intestinalis [4], 25 nM; in the assay with Giardia intestinalis [2] it was 34 nM; with Giardia intestinalis [5] it was 510 nM; in the assay with Giardia intestinalis [3], 14 nM.

`CCOC(=O)Nc1nc2ccccc2[nH]1` [LOBENDAZOLE]: the results for the “Ratio IC50” value in the assay on Giardia intestinalis [6] and with Giardia intestinalis [7] were 4.5 and 32, respectively. For the same compound, the IC50 with Giardia intestinalis [1] turned out to be 916 nM; in the assay with Giardia intestinalis [4] it was 37 nM; in the assay with Giardia intestinalis [2], 85 nM; in the assay on Giardia intestinalis [5], 200 nM; with Giardia intestinalis [3], 61 nM.

As to `Cc1ncc([N+](=O)[O-])n1CCO` [METRONIDAZOLE], the IC50 with Giardia intestinalis [1] came out at 1630 nM; in the assay on Giardia intestinalis [5] it was 1850 nM.

Turning to `CC(=O)Oc1ccccc1C(=O)Nc1ncc([N+](=O)[O-])s1` [NITAZOXANIDE], the IC50 in the assay with Giardia intestinalis [1] worked out at 21 nM; with Giardia intestinalis [4], 15 nM; with Giardia intestinalis [2] it was 18 nM; with Giardia intestinalis [5], 17 nM; with Giardia intestinalis [3], 1970 nM.

`COc1ccc2[nH]c([S+]([O-])Cc3ncc(C)c(OC)c3C)nc2n1` (stereo not given) [TENATOPRAZOLE]: the IC50 with Giardia intestinalis [1] came to 27 nM; in the assay on Giardia intestinalis [4], 20 nM; in the assay with Giardia intestinalis [2], 19 nM; in the assay on Giardia intestinalis [5] it was 59 nM; in the assay with Giardia intestinalis [3], 49 nM. The “Ratio IC50” value in the assay with Giardia intestinalis [8] is 31; with Giardia intestinalis [7], 40; in the assay on Giardia intestinalis [9], 5.
